Test results from EP1243590A2, “Nucleotide analog composition and synthesis method” (GILEAD SCIENCES, INC., priority 1997, dated 1999).
Where a name gives a salt, the structure may show the parent alone.

Columns and labels:
[1] = Solid state chemical stability on storage at elevated temperature and relative humidity; type: physicochemical; conditions: for bis(POC) PMPA citrate% / mono(POC) PMPA citrate% / BPPF% / mono(POC) PMPA fumarate%: 0 days; for mono(POC) PMPA fumarate%: degradation product in stored BPPF
Description: The solid state chemical stability of cBPPF and bis(POC)PMPA·citrate salt was compared by analyzing each compound after storage under different conditions.

[2] = human, in vivo
[3] = Hygroscopicity at 92% relative humidity; type: physicochemical; conditions: room temperature, up to 37 days

CC(C)OC(=O)OCOP(=O)(CO[C@H](C)Cn1cnc2c(N)ncnc21)OCOC(=O)OC(C)C [bis(POC) PMPA citrate]
bis(POC) PMPA citrate% ([1]; 40°C, 75% relative humidity): 99.0%
mono(POC) PMPA citrate% ([1]; 40°C, 75% relative humidity, degradation product in stored citrate salt): 1.0%
bis(POC) PMPA citrate% ([1]; 60°C, 75% relative humidity): 99.0%
mono(POC) PMPA citrate% ([1]; 60°C, 75% relative humidity, degradation product in stored citrate salt): 1.0%
remaining at 336 h ([1]; solid, 75% rh, 40°C, 75% relative humidity, 14 days, read-out: bis(POC) PMPA citrate%): 96.9%
remaining at 720 h ([1]; solid, 75% rh, 40°C, 75% relative humidity, 30 days, read-out: bis(POC) PMPA citrate%): 92.9%
remaining at 1440 h ([1]; solid, 75% rh, 40°C, 75% relative humidity, 60 days, read-out: bis(POC) PMPA citrate%): 77.6%
remaining at 72 h ([1]; solid, 75% rh, 60°C, 75% relative humidity, 3 days, read-out: bis(POC) PMPA citrate%): 24%
remaining at 168 h ([1]; solid, 75% rh, 60°C, 75% relative humidity, 7 days, read-out: bis(POC) PMPA citrate%): 6.7%
degraded at 336 h ([1]; solid, 40°C, 75% relative humidity, 14 days, degradation product in stored citrate salt, read-out: mono(POC) PMPA citrate%): 3.1%
degraded at 720 h ([1]; solid, 40°C, 75% relative humidity, 30 days, degradation product in stored citrate salt, read-out: mono(POC) PMPA citrate%): 7.1%
degraded at 1440 h ([1]; solid, 40°C, 75% relative humidity, 60 days, degradation product in stored citrate salt, read-out: mono(POC) PMPA citrate%): 22.4%
degraded at 72 h ([1]; solid, 60°C, 75% relative humidity, 3 days, degradation product in stored citrate salt, other products were generated in addition, read-out: mono(POC) PMPA citrate%): 58.9%
degraded at 168 h ([1]; solid, 60°C, 75% relative humidity, 7 days, degradation product in stored citrate salt, other products were generated in addition, read-out: mono(POC) PMPA citrate%): 76.2%

9-[2-(R)-[[bis[[(isopropoxycarbonyl)oxy]methoxy] phosphinoyl]methoxy]propyl]-adenine•fumaric acid (1:1) [BPPF]
oral bioavailability [2]: 30-40%
BPPF% ([1]; 40°C, 75% relative humidity): 99.0%
mono(POC) PMPA fumarate% ([1]; 40°C, 75% relative humidity): 1.0%
BPPF% ([1]; 60°C, 75% relative humidity): 99.0%
mono(POC) PMPA fumarate% ([1]; 60°C, 75% relative humidity): 1.0%
solid state chemical stability compared with bis(POC)PMPA citrate salt ([1]; storage at elevated temperature and relative humidity): more stable
hygroscopicity [3]: not hygroscopic
